Drawing on patent publication US20240208956A1, “1,3,4-OXADIAZOLE THIOCARBONYL COMPOUNDS AS HISTONE DEACETYLASE 6 INHIBITOR, AND PHARMACEUTICAL COMPOSITION COMPRISING THE SAME” (CHONG KUN DANG PHARMACEUTICAL CORP., priority 2021, published 2024), this text covers IC50 for four compounds.

For one test, the target named is HDAC6 human recombinant (Homo sapiens (Human), UniProt Q9UBN7). Put plainly: HDAC enzyme activity inhibition (in vitro), HDAC6 fluorimetric assay. Particulars: samples at 0.1-1000 nM; 37° C. 60 minutes; fluorescence Ex 390 nm, Em 460 nm. It is filed as biochemical. On the procedure:
Confirmation of HDAC Enzyme Activity Inhibition (In Vitro)
(§1) An HDAC enzyme inhibitory capacity of test material was measured by using HDAC1 Fluorimetric Drug Discovery Assay Kit (Enzolifesciences: BML-AK511) and HDAC6 human recombinant (Calbiochem: 382180). For a HDAC1 assay, samples were treated at a concentration of 100 nM, 1000 nM and 10000 nM. For an HDAC6 assay, samples were treated at a concentration of 0.1 nM, 1 nM, 10 nM, 100 nM and 1000 nM. After the sample treatment, a reaction was continued at 37° C. for 60 minutes, treated with a developer, and subjected to reaction at 37° C. for 30 minutes, after which fluorescence intensity (Ex 390 nm, Em 460 nm) was measured by using FlexStation3 (Molecular device). For final result values, each […] value was calculated with GraphPad Prism 4.0 program.

In a further test the target is HDAC1 (Homo sapiens (Human), UniProt Q13547). In words: HDAC enzyme activity inhibition (in vitro), HDAC1 Fluorimetric Drug Discovery Assay Kit. It is filed as biochemical. Particulars: samples at 100, 1000 and 10000 nM; 37° C. 60 minutes; fluorescence Ex 390 nm, Em 460 nm. On the procedure:
Experimental Example 1. Confirmation of HDAC Enzyme Activity Inhibition (In Vitro)
as §1

A value given as a limit tells only on which side of the number the result lay.

As usually defined, the IC50 is the point on the concentration scale where inhibition reaches its midpoint.

Sequence of HDAC1 (Q13547 whole entry): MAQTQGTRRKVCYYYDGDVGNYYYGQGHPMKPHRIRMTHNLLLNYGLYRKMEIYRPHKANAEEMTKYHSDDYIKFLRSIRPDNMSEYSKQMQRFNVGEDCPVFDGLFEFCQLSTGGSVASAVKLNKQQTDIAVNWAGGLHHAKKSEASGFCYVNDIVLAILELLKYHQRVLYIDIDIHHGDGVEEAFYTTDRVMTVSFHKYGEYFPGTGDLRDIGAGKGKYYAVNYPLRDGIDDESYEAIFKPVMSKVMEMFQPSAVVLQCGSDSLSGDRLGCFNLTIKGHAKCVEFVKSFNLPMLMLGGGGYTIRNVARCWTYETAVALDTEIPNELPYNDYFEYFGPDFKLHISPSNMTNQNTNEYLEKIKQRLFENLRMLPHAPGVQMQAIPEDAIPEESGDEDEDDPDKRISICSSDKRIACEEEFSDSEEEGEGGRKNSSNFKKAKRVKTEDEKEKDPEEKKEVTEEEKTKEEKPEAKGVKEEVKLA
Sequence of HDAC6 human recombinant (Q9UBN7 whole entry): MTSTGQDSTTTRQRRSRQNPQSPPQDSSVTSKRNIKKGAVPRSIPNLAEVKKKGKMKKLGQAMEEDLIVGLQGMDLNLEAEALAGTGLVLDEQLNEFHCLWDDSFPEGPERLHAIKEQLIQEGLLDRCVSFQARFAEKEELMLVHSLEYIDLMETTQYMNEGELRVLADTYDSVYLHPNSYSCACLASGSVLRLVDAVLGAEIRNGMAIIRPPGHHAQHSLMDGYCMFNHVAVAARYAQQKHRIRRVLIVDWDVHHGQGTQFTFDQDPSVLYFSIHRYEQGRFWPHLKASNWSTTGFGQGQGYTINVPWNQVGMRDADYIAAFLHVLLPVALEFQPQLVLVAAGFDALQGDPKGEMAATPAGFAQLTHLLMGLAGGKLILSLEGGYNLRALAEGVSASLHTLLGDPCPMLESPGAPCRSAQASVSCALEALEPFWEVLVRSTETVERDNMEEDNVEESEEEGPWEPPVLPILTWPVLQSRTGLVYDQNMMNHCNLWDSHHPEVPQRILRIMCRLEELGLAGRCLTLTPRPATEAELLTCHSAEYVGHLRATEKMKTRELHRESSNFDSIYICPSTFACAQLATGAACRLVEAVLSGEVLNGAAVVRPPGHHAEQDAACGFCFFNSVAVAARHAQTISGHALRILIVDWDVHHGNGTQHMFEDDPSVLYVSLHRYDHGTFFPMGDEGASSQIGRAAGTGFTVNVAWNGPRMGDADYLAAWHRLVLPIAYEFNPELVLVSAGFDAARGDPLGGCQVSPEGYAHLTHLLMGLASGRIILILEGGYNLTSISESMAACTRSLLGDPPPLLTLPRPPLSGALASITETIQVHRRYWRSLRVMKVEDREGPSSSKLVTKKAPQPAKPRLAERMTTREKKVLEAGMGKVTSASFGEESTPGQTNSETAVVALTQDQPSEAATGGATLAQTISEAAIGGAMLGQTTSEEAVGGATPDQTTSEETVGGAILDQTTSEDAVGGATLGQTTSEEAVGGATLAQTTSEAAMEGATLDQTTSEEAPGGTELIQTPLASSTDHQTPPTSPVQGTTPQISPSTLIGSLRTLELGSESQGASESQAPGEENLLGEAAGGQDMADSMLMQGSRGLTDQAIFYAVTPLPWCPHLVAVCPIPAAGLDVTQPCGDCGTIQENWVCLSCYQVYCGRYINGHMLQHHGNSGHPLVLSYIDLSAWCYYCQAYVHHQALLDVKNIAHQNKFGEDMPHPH

On to `CN1CCN(C(=S)N(Cc2ccc(-c3nnc(C(F)F)o3)cc2)c2ccccc2)CC1` [Compound 4, N-(4-(5-(difluoromethyl)-1,3,4-oxadiazol-2-yl)benzyl)-4-methyl-N-phenylpiperazin-1-carbothioamide], for which the IC50 on HDAC6 human recombinant is 37 nM; against HDAC1, over 10000 nM.
As for `Fc1ccc(N(Cc2ccc(-c3nnc(C(F)F)o3)cc2F)C(=S)N2CCC3(CC2)CN(C2COC2)C3)cc1F` [Compound 45, N-(4-(5-(difluoromethyl)-1,3,4-oxadiazol-2-yl)-2-fluorobenzyl)-N-(3,4-difluorophenyl)-2-(oxetan-3-yl)-2,7-diazaspiro[3.5]nonan-7-carbothioamide], the results for the IC50 on HDAC6 human recombinant and on HDAC1 were 196 nM and over 10000 nM, respectively.
As for `CN1CC2(C1)CN(C(=S)N(Cc1ccc(-c3nnc(C(F)F)o3)cc1)c1ccc(F)c(Cl)c1)C2` [Compound 26, N-(3-chloro-4-fluorophenyl)-N-(4-(5-(difluoromethyl)-1,3,4-oxadiazol-2-yl)benzyl)-6-methyl-2,6-diazaspiro[3.3]heptan-2-carbothioamide], the results for the IC50 at HDAC6 human recombinant and at HDAC1 were 89 nM and over 10000 nM, respectively.
For `O=S1(=O)CCN(C(=S)N(Cc2ccc(-c3nnc(C(F)F)o3)cn2)c2ccccc2)CC1` [Compound 6, N-((5-(5-(difluoromethyl)-1,3,4-oxadiazol-2-yl)pyridin-2-yl)methyl)-N-phenylthiomorpholin-4-carbothioamide 1,1-dioxide], the IC50 at HDAC6 human recombinant was 31 nM; against HDAC1, over 10000 nM.
